Laboratory results taken from patent US5120647A, “Phospholipase A2 inhibitor” (Shionogi & Co., Ltd., priority 1989, dated 1992).
Counter-ions that a name gives are not always drawn. Like-named read-outs stand apart in the source and are kept apart here.

Tests used:
PLA2 from Rat Platelet = molecular target: T1, PLA2 from Rat Platelet (Rattus norvegicus, UniProt P14423); assay: PLA2 inhibitory activity (release of free fatty acid from [14C]phosphatidylethanolamine); assay type: biochemical; details: for IC50: 37° C., 20 minutes, pH 7.4; for PLA2 inhibitory effect (in words): statement in words
T1 construct: PLA2 released from thrombin-stimulated rat platelets; from tissue; host or cells: thrombin-stimulated rat platelets (released enzyme, purified on MD 7.1 antibody-coupled Sepharose)
T1 sequence (P14423 22-146): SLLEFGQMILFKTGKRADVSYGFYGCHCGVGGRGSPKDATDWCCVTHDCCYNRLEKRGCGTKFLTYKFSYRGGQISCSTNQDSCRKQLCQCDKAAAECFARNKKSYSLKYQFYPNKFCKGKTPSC
Method: The amount of Cinatrin (μg/ml) effective for inhibiting 50% of PLA2 activity (IC50) was determined.
PLA2 inhibitory activities of Cinatrin and its derivatives were determined according to the following procedure.
PLA2 released from thrombin-stimulated rat platelets was prepared by immuno-affinity chromatography using antibody MD 7.1-coupled Sepharose (Murakami et. al, J. Biochem 104: 884-888, 1988). The standard assay conditions included, 250 μl of Tris-HCl buffer (100 mM, pH 7.4), CaCl2 (3 mM), 40 μM [^14 C]phosphatidylethanolamine and the enzyme. The reaction was started by the addition of the enzyme solution. Following incubation at 37° C. for 20 minutes, the reaction was terminated by addition of 1.25 ml of Dole's reagent (Dole, V. P. & H, Meinerts, J. Biol. Chem. 235: 2595-2599, 1960). Then released free fatty acid was extracted, and counted in Liquiflour (Du Pont-New England Nuclear) to determine the release of the radioactivity. Inhibition activity is expressed as percent of enzyme control.

Solubility = assay type: physicochemical
[1] = Table 5, methyl ester, read-out: PLA2 Inhibitory Activity, IC50, methyl ester (converted)
[2] = Table 5, seco acid (Na), read-out: PLA2 Inhibitory Activity, IC50, seco acid (Na) (converted)
[3] = Table 5, lactone, read-out: PLA2 Inhibitory Activity, IC50, lactone (converted)

Row | SMILES | IC50 (PLA2 from Rat Platelet; [1]) [µM] | Solubility in organic solvents (Solubility) | IC50 (PLA2 from Rat Platelet; [3]) [µM] | other results
1 | C=CCCCCCCCCC1CC2(OC(=O)C(O)C2(O)C(=O)OC)C(=O)O1 (centres unmarked) [Cinatrin A methyl ester] | 216 | – | – | –
2 | C=CCCCCCCCCC(O)CC(O)(C(=O)O)C(O)(C(=O)O)C(O)C(=O)O (centres unmarked) [Cinatrin A seco acid (Na salt)] | – | – | – | IC50 (PLA2 from Rat Platelet; [2]): 138 µM
3 | C=CCCCCCCCCC1CC2(OC(=O)C(O)C2(O)C(=O)O)C(=O)O1 (centres unmarked) [Cinatrin A, 8-(dec-9-ene-1-yl)-3,4-dihydroxy-2,6-dioxo-1,7-dioxaspiro [5,5]-nonane-4-carboxylic acid] | – | soluble | 316 | Solubility in water (Solubility): soluble
4 | CCCCCCCCCCC1CC2(OC(=O)C(O)C2(O)C(=O)OC)C(=O)O1 (centres unmarked) [Cinatrin B methyl ester] | 215 | – | – | –
5 | CCCCCCCCCCC(O)CC(O)(C(=O)O)C(O)(C(=O)O)C(O)C(=O)O (centres unmarked) [Cinatrin B seco acid (Na salt)] | – | – | – | IC50 (PLA2 from Rat Platelet; [2]): 75.7 µM
6 | CCCCCCCCCCC1CC2(OC(=O)C(O)C2(O)C(=O)O)C(=O)O1 (centres unmarked) [Cinatrin B, 8-(decane-1-yl)-3,4-dihydroxy-2,6-dioxo-1,7-dioxaspiro[5,5]-nonane-4-carboxylic acid] | – | soluble | 147 | PLA2 inhibitory effect (in words) (PLA2 from Rat Platelet): particularly effective
7 | CCCCCCCCCCCCC1(C(=O)OC)OC(=O)C(O)C1(O)C(=O)OC (centres unmarked) [Cinatrin C1 methyl ester] | 142 | – | – | –
8 | CCCCCCCCCCCCC(O)(C(=O)O)C(O)(C(=O)O)C(O)C(=O)O (centres unmarked) [Cinatrin C1 seco acid (Na salt)] | – | – | – | IC50 (PLA2 from Rat Platelet; [2]): 70.1 µM
9 | CCCCCCCCCCCC(O)C(C(=O)O)C(O)(C(=O)O)C(O)C(=O)O (centres unmarked) [Cinatrin C2 seco acid (Na salt)] | – | – | – | IC50 (PLA2 from Rat Platelet; [2]): 44.6 µM

Continued, in another order:

Row | IC50 (PLA2 from Rat Platelet; [1]) [µM] | Solubility in organic solvents (Solubility) | IC50 (PLA2 from Rat Platelet; [3]) [µM] | SMILES | other results
10 | – | soluble | > 801 | CCCCCCCCCCCCC1(C(=O)O)OC(=O)C(O)C1(O)C(=O)O (centres unmarked) [Cinatrin C1, 2-dodecyl-3,4-dihydroxy-5-oxo-tetrahydrofuran-2,3-dicarboxylic acid] | Solubility in water (Solubility): slightly soluble; IC50 (PLA2 from Rat Platelet; Table 1, lactone form, read-out: IC50, lactone form (Inhibitory Effect on PLA2 from Rat Platelet)): > 801 µM; Change of PLA2 inhibitory activity on conversion of lactone into ester or seco acid form (in words) (PLA2 from Rat Platelet; ester or seco acid form versus lactone form): becomes more active when it is converted into an ester or seco acid form; PLA2 inhibitory effect (in words) (PLA2 from Rat Platelet): moderately active in its lactone form
11 | 745 | – | – | CCCCCCCCCCCC(O)C1C(=O)OC(C(=O)OC)C1(O)C(=O)OC (centres unmarked) [Cinatrin C2 methyl ester] | –
12 | – | soluble | 801 | CCCCCCCCCCCC(O)C1C(=O)OC(C(=O)O)C1(O)C(=O)O (centres unmarked) [Cinatrin C2, 3-hydroxy-4-(1-hydroxydodecyl)-5-oxo-tetrahydrofuran-2,3-dicarboxylic acid] | –
13 | 133 | – | – | CCCCCCCCCCCCC1(O)C(=O)OC(C(=O)OC)C1(O)C(=O)OC (centres unmarked) [Cinatrin C3 methyl ester] | –
14 | – | soluble | 78.8 | CCCCCCCCCCCCC1(O)C(=O)OC(C(=O)O)C1(O)C(=O)O (centres unmarked) [Cinatrin C3, 4-dodecyl-3,4-dihydroxy-5-oxo-tetrahydrofuran-2,3-dicarboxylic acid] | PLA2 inhibitory effect (in words) (PLA2 from Rat Platelet): particularly effective
